Results as given in ChEMBL document CHEMBL5052850, “Compounds and methods targeting qsox1” (2021).
Active and inactive are the calls of the source. No cut-off for these calls is given here.

Assays:
MIA PaCa-2 = assay: Antiinvasive activity against human MIA PaCa-2 cells measured spheroid invasion assay; type: functional, cell-based
RCJ-41T2 = assay: Antiinvasive activity against human RCJ-41T2 cells at 156.25 to 1250 uM measured spheroid invasion assay; type: functional, cell-based; conditions: dose 156.25-1250 µM
Sulfhydryl oxidase 1 = biological target: T1, Sulfhydryl oxidase 1 (Homo sapiens, UniProt O00391); assay: Binding affinity towards QSOX1 (unknown origin) measured by microscale thermophoresis assay
T1 sequence (O00391 whole entry): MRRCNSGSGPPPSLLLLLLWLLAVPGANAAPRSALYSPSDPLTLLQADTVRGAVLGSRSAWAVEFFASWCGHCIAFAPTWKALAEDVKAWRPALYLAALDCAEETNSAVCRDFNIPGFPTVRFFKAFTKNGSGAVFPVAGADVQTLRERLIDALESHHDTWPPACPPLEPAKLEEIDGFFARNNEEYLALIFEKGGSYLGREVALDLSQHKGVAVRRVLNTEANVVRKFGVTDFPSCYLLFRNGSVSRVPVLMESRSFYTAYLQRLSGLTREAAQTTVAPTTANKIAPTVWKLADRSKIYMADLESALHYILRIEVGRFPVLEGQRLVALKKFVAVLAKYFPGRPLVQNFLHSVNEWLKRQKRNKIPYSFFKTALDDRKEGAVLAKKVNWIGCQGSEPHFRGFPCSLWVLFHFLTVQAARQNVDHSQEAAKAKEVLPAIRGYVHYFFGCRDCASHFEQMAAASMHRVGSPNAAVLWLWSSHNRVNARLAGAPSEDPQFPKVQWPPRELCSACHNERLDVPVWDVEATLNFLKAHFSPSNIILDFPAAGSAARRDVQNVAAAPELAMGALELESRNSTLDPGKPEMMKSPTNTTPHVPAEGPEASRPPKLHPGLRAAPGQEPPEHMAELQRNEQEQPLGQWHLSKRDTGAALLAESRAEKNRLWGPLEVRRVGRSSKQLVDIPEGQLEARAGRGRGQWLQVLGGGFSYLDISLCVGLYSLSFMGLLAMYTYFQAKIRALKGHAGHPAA

UOK117 = assay: Antitumor activity in human UOK117 cells xenografted nude mouse assessed as suppression of tumor growth; type: functional, cell-based
MDA-MB-231 [1] = assay: Anticancer activity against human MDA-MB-231 cells at 156.25 to 1250 uM assessed as suppression of tumor cell tendrils spreading formation measured by 3D tumor cell spheroid assay; type: functional, cell-based; conditions: dose 156.25-1250 µM
MDA-MB-231 [2] = assay: Antitumor activity in human MDA-MB-231-Luc cells xenografted immunodeficient mouse assessed as reduction in lung metastasis at 100 mg/kg, po administered for 28 days; type: functional; design: scale not given: the % may be the effect or the level left; conditions: time 28 day
MCF-10A = assay: Antiinvasive activity against human MCF-10A cells measured spheroid invasion assay; type: functional, cell-based
786-0 [3] = assay: Antiinvasive activity against human 786-0 cells measured spheroid invasion assay; type: functional, cell-based
786-0 [4] = assay: Antitumor activity in human 786-0 cells xenografted immunodeficient mouse assessed as reduction in tumor growth at 14 mg/kg/day, po; type: functional; conditions: 786-0, po, read-out: TGI
[5] = biological target: T2, Sulfhydryl oxidase 1 (Homo sapiens) (UniProt O00391); assay: Inhibition of QSOX1 (unknown origin) at 6.25 to 50 uM relative to control; conditions: dose 6.25-50 µM
T2 sequence (whole entry): T1 sequence (O00391 whole entry)

Kd (Sulfhydryl oxidase 1): 20 µM
inhibition [5]: Active
Structure (SMILES): COc1cccc(C(=O)Nc2ccc(N3CCCC3)cc2)c1
Activity (MIA PaCa-2): Active
Activity (RCJ-41T2): Active
Activity (UOK117): Active
Activity (MDA-MB-231 [1]): Active
Activity (MDA-MB-231 [2]): 76%
Activity (MCF-10A): Active
Activity (786-0 [3]): Active
inhibition in vivo at 14 mg/kg/day (786-0 [4]): 51%
